In general, CC50 refers to the concentration at which the toxic effect on the cells reaches its halfway point.

The results in this text go back to patent US20240018123A1, “COMPOUND FOR INHIBITING OR DISINTEGRATING ANDROGEN RECEPTOR, AND PHARMACEUTICAL USE THEREOF” (KOREA RESEARCH INSTITUTE OF CHEMICAL TECHNOLOGY, priority 2020, published 2024).

Like-named read-outs stand apart in the source and are kept apart here.

Data set [1] has as its system LNCaP cells.
Data set [2] has as its target T1, Androgen receptor (AR) (Homo sapiens, UniProt P10275, T878A).
T1 construct: 5.5×10^5 LNCap cells were injected into each well of a 6-well plate; endogenous in cells; host or cells: LNCaP
T1 sequence (P10275 1-920 T878A): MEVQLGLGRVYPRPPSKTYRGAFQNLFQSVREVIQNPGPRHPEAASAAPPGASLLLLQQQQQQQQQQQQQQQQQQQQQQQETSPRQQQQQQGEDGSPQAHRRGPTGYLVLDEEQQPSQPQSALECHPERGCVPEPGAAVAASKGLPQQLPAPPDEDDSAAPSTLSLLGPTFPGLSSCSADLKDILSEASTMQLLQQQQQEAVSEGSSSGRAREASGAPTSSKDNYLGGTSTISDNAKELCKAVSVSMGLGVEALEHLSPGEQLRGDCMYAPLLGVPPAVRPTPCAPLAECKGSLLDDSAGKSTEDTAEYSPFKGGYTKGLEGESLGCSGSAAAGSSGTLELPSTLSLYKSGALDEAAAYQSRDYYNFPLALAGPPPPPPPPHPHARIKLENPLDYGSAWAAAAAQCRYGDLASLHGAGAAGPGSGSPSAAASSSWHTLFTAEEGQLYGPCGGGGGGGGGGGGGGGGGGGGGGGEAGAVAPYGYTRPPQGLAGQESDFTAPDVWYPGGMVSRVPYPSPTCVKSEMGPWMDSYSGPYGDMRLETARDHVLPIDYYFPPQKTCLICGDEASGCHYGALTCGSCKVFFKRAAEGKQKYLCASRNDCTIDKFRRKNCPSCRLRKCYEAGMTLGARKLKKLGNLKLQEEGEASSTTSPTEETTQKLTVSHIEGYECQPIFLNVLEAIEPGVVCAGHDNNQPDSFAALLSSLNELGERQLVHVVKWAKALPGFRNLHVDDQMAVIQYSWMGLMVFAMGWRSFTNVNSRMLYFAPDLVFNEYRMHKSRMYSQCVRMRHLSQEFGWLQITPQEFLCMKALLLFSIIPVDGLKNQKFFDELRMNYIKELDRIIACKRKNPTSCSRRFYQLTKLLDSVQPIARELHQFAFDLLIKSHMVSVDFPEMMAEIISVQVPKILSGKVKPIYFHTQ
Description: Assessment of AR proteolytic activity (Western blotting of LNCap cell lysates). In kind it is cell-based. Particulars: 24 hours of treatment, Western blotting quantified with Image J. In a few lines:
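LNCap cells seeded at 5.5×10^5 per well and treated with compound for 24 hours. Lysates prepared in RIPA buffer (pH 7.5, with protease inhibitors). AR protein levels assessed by Western blot with densitometric quantification.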
For orientation: In western blotting, separated proteins are transferred to a membrane and probed.

The test system of data set [3] is VCaP cells.
Data set [4] has as its system VCaP cells. Description: Cytotoxicity assessment (Cell-titer-glo cell viability), VCaP.
Data set [5] relates to LNCaP cells. Description: Cytotoxicity assessment (Cell-titer-glo cell viability), LNCaP.
Setting [6] is: read-out: VCaP (CC50), VCaP cells, 6 days of treatment, Cell-titer-glo, vs DMSO.
The mark [7] stands for this setting: read-out: LNCAP (CC50), LNCaP cells, 6 days of treatment, Cell-titer-glo, vs DMSO.

`CC1(C)C(NC(=O)c2ccc(OCCOCCOCCOCCOCCNc3cccc4nnn(C5CCC(=O)NC5=O)c(=O)c34)cc2)C(C)(C)C1Oc1ccc(C#N)c(Cl)c1` (centres unmarked) [Example 2, N-((1r,3r)-3-(3-chloro-4-cyanophenoxy)-2,2,4,4-tetramethylcyclobutyl)-4-((14-((3-(2,6-dioxopiperidin-3-yl)-4-oxo-3,4-dihydrobenzo[d][1,2,3]triazin-5-yl)amino)-3,6,9,12-tetraoxatetradecyl)oxy)benzamide] gave a cytotoxic concentration (CC50) in data set [1] of 4930 nM. The “Degradation (1 μM treated in LNCaP, % AR remaining)” value in data set [2] came out at 100%.
For the compound `CC1(C)C(NC(=O)c2ccc(OCCOCCOCCOCCOCCOCCCCNc3cccc4nnn(C5CCC(=O)NC5=O)c(=O)c34)cc2)C(C)(C)C1Oc1ccc(C#N)c(Cl)c1` (centres unmarked) [Example 5, N-((1r,3r)-3-(3-chloro-4-cyanophenoxy)-2,2,4,4-tetramethylcyclobutyl)-4-((19-((3-(2,6-dioxopiperidin-3-yl)-4-oxo-3,4-dihydrobenzo[d][1,2,3]triazin-5-yl)amino)-3,6,9,12,15-pentaoxanonadecyl)oxy)benzamide], the CC50 in data set [1] came to 1600 nM. Further, in data set [2], the “Degradation (1 μM treated in LNCaP, % AR remaining)” value is 6%.
In data set [1], `CC1(C)[C@H](NC(=O)c2ccc(N3CCN(CC4CCN(c5cccc6nnn(C7CCC(=O)NC7=O)c(=O)c56)CC4)CC3)cc2)C(C)(C)[C@H]1Oc1ccc(C#N)c(Cl)c1` (some centres unmarked) [Example 7, N-((1r,3r)-3-(3-chloro-4-cyanophenoxy)-2,2,4,4-tetramethylcyclobutyl)-4-(4-((1-(3-(2,6-dioxopiperidin-3-yl)-4-oxo-3,4-dihydrobenzo[d][1,2,3]triazin-5-yl)piperidin-4-yl)methyl)piperazin-1-yl)benzamide] displayed a cytotoxic concentration (CC50) of 902 nM. In addition, the “Degradation (1 μM treated in LNCaP, % AR remaining)” value in data set [2] amounted to 24.3%.
Compound `CC1(C)[C@H](NC(=O)c2ccc(N3CCN(CC4CCN(C(=O)CNc5ccc6nnn(C7CCC(=O)NC7=O)c(=O)c6c5)CC4)CC3)cc2)C(C)(C)[C@H]1Oc1ccc(C#N)c(Cl)c1` (some centres unmarked) [Example 9, N-((1r,3r)-3-(3-chloro-4-cyanophenoxy)-2,2,4,4-tetramethylcyclobutyl)-4-(4-((1-((3-(2,6-dioxopiperidin-3-yl)-4-oxo-3,4-dihydrobenzo[d][1,2,3]triazin-6-yl)glycyl)piperidin-4-yl)methyl)piperazin-1-yl)benzamide] gave a half-maximal cytotoxic concentration (CC50) in data set [1] of 117 nM. In addition, the “Degradation (1 μM treated in LNCaP, % AR remaining)” value in data set [2] came to 39.9%.
Turning to `CC1(C)[C@H](NC(=O)c2ccc(N3CCN(CC4CCN(C(=O)C5CN(c6ccc7nnn(C8CCC(=O)NC8=O)c(=O)c7c6)C5)CC4)CC3)cc2)C(C)(C)[C@H]1Oc1ccc(C#N)c(Cl)c1` (some centres unmarked) [Example 11, N-((1r,3r)-3-(3-chloro-4-cyanophenoxy)-2,2,4,4-tetramethylcyclobutyl)-4-(4-((1-(1-(3-(2,6-dioxopiperidin-3-yl)-4-oxo-3,4-dihydrobenzo[d][1,2,3]triazin-6-yl)azetidine-3-carbonyl)piperidin-4-yl)methyl)piperazin-1-yl)benzamide], the CC50 in data set [1] turned out to be 91.4 nM; in data set [3], 74.7 nM. In addition, the “Degradation (1 μM treated in LNCaP, % AR remaining)” value in data set [2] was determined as 7%.
On to `CC1(C)[C@H](NC(=O)c2ccc(N3CCN(CC4CCN(c5ccc6c(=O)n(C7CCC(=O)NC7=O)nnc6c5)CC4)CC3)cc2)C(C)(C)[C@H]1Oc1ccc(C#N)c(Cl)c1` (some centres unmarked) [Example 12, N-((1r,3r)-3-(3-chloro-4-cyanophenoxy)-2,2,4,4-tetramethylcyclobutyl)-4-(4-((1-(3-(2,6-dioxopiperidin-3-yl)-4-oxo-3,4-dihydrobenzo[d][1,2,3]triazin-7-yl)piperidin-4-yl)methyl)piperazin-1-yl)benzamide], for which the CC50 in data set [1] came to 1310 nM. Further, the “Degradation (1 μM treated in LNCaP, % AR remaining)” value in data set [2] is recorded as 7%.
`CC1(C)C(NC(=O)c2ccc(OCCOCCOCCOCCOCCOCCCCNC(=O)CNc3cccc4nnn(C5CCC(=O)NC5=O)c(=O)c34)cc2)C(C)(C)C1Oc1ccc(C#N)c(Cl)c1` (centres unmarked) [Example 14, N-((1r,3r)-3-(3-chloro-4-cyanophenoxy)-2,2,4,4-tetramethylcyclobutyl)-4-((22-((3-(2,6-dioxopiperidin-3-yl)-4-oxo-3,4-dihydrobenzo[d][1,2,3]triazin-5-yl)amino)-21-oxo-3,6,9,12,15-pentaoxa-20-azadocosyl)oxy)benzamide] displayed a half-maximal cytotoxic concentration (CC50) in data set [1] of 4020 nM. Besides, the “Degradation (1 μM treated in LNCaP, % AR remaining)” value in data set [2] was found to be 35.3%.
Turning to `CC1(C)C(NC(=O)c2ccc(OCCOCCOCCOCCOCCOCCCCNc3ccc4nnn(C5CCC(=O)NC5=O)c(=O)c4c3)cc2)C(C)(C)C1Oc1ccc(C#N)c(Cl)c1` (centres unmarked) [Example 17, N-((1r,3r)-3-(3-chloro-4-cyanophenoxy)-2,2,4,4-tetramethylcyclobutyl)-4-((19-((3-(2,6-dioxopiperidin-3-yl)-4-oxo-3,4-dihydrobenzo[d][1,2,3]triazin-6-yl)amino)-3,6,9,12,15-pentaoxanonadecyl)oxy)benzamide], it took 835 nM to reach half-maximal cytotoxicity in data set [1] (CC50). Further, in data set [2], the “Degradation (1 μM treated in LNCaP, % AR remaining)” value is recorded as 6.7%.
On to `CC1(C)[C@H](NC(=O)c2ccc(N3CCN(CCC4CCN(C(=O)COc5ccc6nnn(C7CCC(=O)NC7=O)c(=O)c6c5)CC4)CC3)cc2)C(C)(C)[C@H]1Oc1ccc(C#N)c(Cl)c1` (some centres unmarked) [Example 24, N-((1r,3r)-3-(3-chloro-4-cyanophenoxy)-2,2,4,4-tetramethylcyclobutyl)-4-(4-(2-(1-(2-((3-(2,6-dioxopiperidin-3-yl)-4-oxo-3,4-dihydrobenzo[d][1,2,3]triazin-6-yl)oxy)acetyl)piperidin-4-yl)ethyl)piperazin-1-yl)benzamide], for which the CC50 is 1480 nM in data set [1] and 107 nM in data set [3]. Further, the “Degradation (1 μM treated in LNCaP, % AR remaining)” value in data set [2] worked out at 13%.
Consider `CC1(C)[C@H](NC(=O)c2ccc(N3CCN(CCOC4CCN(c5ccc6nnn(C7CCC(=O)NC7=O)c(=O)c6c5)CC4)CC3)cc2)C(C)(C)[C@H]1Oc1ccc(C#N)c(Cl)c1` (some centres unmarked) [Example 34, N-((1r,3r)-3-(3-chloro-4-cyanophenoxy)-2,2,4,4-tetramethylcyclobutyl)-4-(4-(2-((1-(3-(2,6-dioxopiperidin-3-yl)-4-oxo-3,4-dihydrobenzo[d][1,2,3]triazin-6-yl)piperidin-4-yl)oxy)ethyl)piperazin-1-yl)benzamide], for which the CC50 in data set [4] (Homo sapiens, VCaP, 144 h, read-out: VCaP (CC50, μM)) was 0.0702 µM; in data set [5] (Homo sapiens, LNCaP, 144 h, read-out: LNCAP (CC50, μM)), 0.523 µM. Moreover, the remaining activity at 1 µM in data set [2] (read-out: Degradation (1 μM treated in LNCaP, % AR remaining)) is 11%.
In the case of “N-((1r,3r)-3-(3-chloro-4-cyanophenoxy)-2,2,4,4-tetramethylcyclobutyl)-4-(4-(2-((1-(1-(3-(2,6-dioxopiperidin-3-yl)-4-oxo-3,4-dihydrobenzo[d][1,2,3]triazin-6-yl)azetidine-3-carbonyl)piperidin-4-yl)oxy)ethyl)piperazin-1-yl)benzamide [Example 33]”, the CC50 is 0.057 µM in data set [4] (setting [6]) and 0.762 µM in data set [5] (setting [7]). Besides, the “Degradation (1 μM treated in LNCaP, % AR remaining)” value in data set [2] is reported as 14%.
In the case of “N-((1r,3r)-3-(3-chloro-4-cyanophenoxy)-2,2,4,4-tetramethylcyclobutyl)-4-(4-(2-((1-(1-(3-(2,6-dioxopiperidin-3-yl)-4-oxo-3,4-dihydrobenzo[d][1,2,3]triazin-6-yl)piperidine-4-carbonyl piperidin-4-yl)oxy)ethyl)piperazin-1-yl)benzamide [Example 30]”, the CC50 in data set [4] (setting [6]) turned out to be 0.08 µM; in data set [5] (setting [7]), 0.847 µM. Also, the “Degradation (1 μM treated in LNCaP, % AR remaining)” value in data set [2] came to 4%.
